Data from patent US10954305B2 (Immunomedics, Inc., priority 2016, dated 2021).

Experiments:
[1] = mouse, in vivo, iv, 200 ug
Text: ELISA was utilized to determine serum concentrations of total hRS7 IgG by competing for the binding to an anti-hRS7 IgG idiotype antibody with a horseradish peroxidase conjugate of hRS7. […] Pharmacokinetic (PK) parameters were computed by noncompartmental analysis using Phoenix WinNonlin software (version 6.3; Pharsight Corp., Mountainview, Calif.).

[2] = test system: triple-negative breast cancer; details: 58 evaluable mTNBC patients, RECIST1.1 (Bardia et al.); cited from earlier work
[3] = biological target: T1, Trop-2 on multiple cell lines (Homo sapiens, UniProt P09758); experiment: in vitro cell binding
T1 construct: endogenous in cells; host or cells: human solid tumour cell lines
T1 sequence (P09758 27-323): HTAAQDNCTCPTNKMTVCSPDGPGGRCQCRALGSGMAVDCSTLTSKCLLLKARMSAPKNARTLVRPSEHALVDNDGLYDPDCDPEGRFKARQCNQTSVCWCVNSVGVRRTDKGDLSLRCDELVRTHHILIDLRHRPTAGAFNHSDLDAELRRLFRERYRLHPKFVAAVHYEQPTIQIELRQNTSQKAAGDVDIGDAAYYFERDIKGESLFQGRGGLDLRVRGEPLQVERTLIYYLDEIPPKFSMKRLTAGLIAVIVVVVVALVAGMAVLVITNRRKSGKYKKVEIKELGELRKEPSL
Description: LumiGLO Chemiluminescent Substrate System (KPL, Gaithersberg, Md.) was used to detect antibody binding to cells. Briefly, cells were plated into a 96 black-well, flat-clear-bottom plate overnight. Antibodies were serially diluted 1:2 and added in triplicate, yielding a concentration range from 0.03 to 66.7 nM. After incubating for 1 h at 4° C., the media was removed and the cells washed with fresh cold media followed by the addition of a 1:20,000 dilution of goat-antihuman horseradish peroxidase-conjugated secondary antibody (Jackson Immunoresearch, West Grove, Pa.) for 1 h at 4° C. The plates were again washed before the addition of the LumiGLO reagent. Plates were read for luminescence using an Envision plate reader (Perkin Elmer, Boston Mass.). Data were analyzed by non-linear regression to determine the equilibrium dissociation constant (KD). Statistical comparisons of KD-values were made with Prism GraphPad Software (v4.03) (Advanced Graphics Software, Inc.; Encinitas, Calif.) using an F-Test on the best-fit curves for the data. Significance was set at P<0.05.

p53 in BxPC-3 and Calu-3 = experiment: p53 expression; type: cell-based, human
Description: In addition, p53 expression in cells exposed to the ADC was higher in both cell lines compared to SN-38 (not shown). […] In terms of later apoptotic events, cleavage of PARP was evident in both cell lines when incubated with either SN-38 or the conjugate (not shown). […] The higher degree of cleavage with free SN-38 over the ADC was consistent with the cytotoxicity findings.

BxPC-3 [4] = experiment: dsDNA breaks, γH2AX flow cytometry; type: cell-based, human; details: 20 μg/ml for 30 min
Description: For drug activity testing, BxPC-3 cells were seeded in 6-well plates at 5×10^5 cells/well and held at 37° C. overnight. […] The following morning, cells were trypsinized briefly, spun down, stained with Fixable Viability Stain 450 (BD Biosciences, San Jose, Calif.), washed with 1% BSA-PBS, and then fixed in 4% formalin for 15 min, washed again and permeabilized in 0.15% Triton-X100 in PBS for another 15 min. After washing twice with 1% BSA-PBS, cells were incubated with mouse anti-γH2AX-AF488 (EMD Millipore Corporation, Temecula, Calif.) for 45 min at 4° C. The signal intensity of γH2AX was measured by flow cytometry using a BD FACSCanto (BD Biosciences, San Jose, Calif.).

MDA-MB-468 = experiment: ADCC, LDH-release assay; type: cell-based, human; details: 33.3 nM, E:T 50:1
Description: Briefly, target cells (MDA-MB-468, NIH:OVCAR-3, or BxPC-3) were plated at 1×10^4 cells/well in a 96-well, black, flat-bottom plate and incubated overnight. The next day, peripheral blood mononuclear effector cells (PBMCs) were freshly isolated from a donor and added to assigned wells on the reaction plate at an E:T ratio of 50:1. Acquisition of human PBMCs was done under the approval of the New England Institutional Review Board (Newton, Mass.). Test reagents were added to their assigned wells at a final concentration of 33.3 nM. One set of wells received ADCC assay medium alone for background control and another set of wells received cells alone plus TritonX100 for maximum cells lysis control. The plate was incubated for 4 h at 37° C. After 4 h, target cell lysis was assessed by a homogenous fluorometric LDH release assay (Cyto Tox-One Homogenous Membrane Integrity Assay; Promega, Cat. G7891).
The plates were read (544 nm-590 nm) using an Envision plate reader (PerkinElmer LAS, Inc.; Shelton, Conn.). Data were analyzed by Microsoft Excel. Percent specific lysis was calculated as follows: […]

[5] = test system: p21^WAF1/Cip1 in MDA-MB-468; experiment: immunoblotting of apoptotic pathway; type: cell-based, human; details: by 48 h
Description: Cells (2×10^6) were plated in 6-well plates overnight. […] Parental hRS7 was used as a control for the ADC.

Capan-1 xenografts = experiment: combined radioimmunotherapy and ADC, Capan-1 xenograft; type: in vivo, nude mice
Text: The present study examined combinations of ^90Y-hPAM4 IgG with RS7-SN-38 in nude mice bearing 0.35 cm^3 subcutaneous xenografts of the human pancreatic cancer cell line, Capan-1. […] These studies provide the first evidence that combined radioimmunotherapy and ADC enhances efficacy at safe doses.

CDC activity = type: cell-based
BxPC-3 [6] = experiment: ADCC of hRS7-ADCs vs hRS7 IgG; type: cell-based, human; details: 33.3 nM; effector to target ratio 100:1
Description: The ADCC activity of various hRS7-ADC conjugates was determined in comparison to hRS7 IgG (FIG. 3). PBMCs were purified from blood purchased from the Blood Center of New Jersey. A Trop-2-positive human pancreatic adenocarcinoma cell line (BxPC-3) was used as the target cell line with an effector to target ratio of 100:1. […] All were used at 33.3 nM.

For IMMU-132, the “MRT, carrier hRS7 antibody” value [1] was ~300 h, the “alpha half-life, hRS7 IgG” value [1] was “approximately 3 h” and the “beta half-life, hRS7 IgG” value [1] was ~200 h. The “half-life, intact conjugate” value [1] was 11 h, the “interim objective response rate” value [2] was 31% and the KD [3] was “in the sub-nanomolar range”. For the same substance, the “time to upregulation of p53” value (p53 in BxPC-3 and Calu-3) was ≤ 24 h, the “Mean Fluorescence Intensity (γH2AX)” value (BxPC-3 [4]) was 5349 ± 234 and the specific lysis (MDA-MB-468) was 8.6±2.6%. For the same substance, the “decrease of p21^WAF1/Cip1” value [5] was 43% and the “mice tumor-free after 20 weeks” value (Capan-1 xenografts; ADC alone) was 1 of 10.

For hRS7 IgG, the “alpha half-life, hRS7 IgG” value [1] was “approximately 3 h”, the “beta half-life, hRS7 IgG” value [1] was ~200 h and the CDC activity (CDC activity) was “no CDC activity”. For the same substance, the KD [3] was “in the sub-nanomolar range”, the “time to upregulation of p53” value (p53 in BxPC-3 and Calu-3) was 48 h and the “Mean Fluorescence Intensity (γH2AX)” value (BxPC-3 [4]) was 2297 ± 18. For the same substance, the “Percent Positive (γH2AX)” value (BxPC-3 [4]) was 13.0 ± 0.6%, the specific lysis (MDA-MB-468) was 29.8±2.6% and the “specific lysis (ADCC)” value (BxPC-3 [6]) was 8.5%. The “anti-tumor activity of unconjugated antibody” value (Capan-1 xenografts; given alone) was “Neither unconjugated hPAM4 nor hRS7 antibodies had anti-tumor activity when given alone”.
